According to patent US10590143B2, “Herbicidally active (alkynyl-phenyl)-substituted cyclic dione compounds and derivatives thereof” (Syngenta Limited, priority 2013, dated 2020):

What was measured:
Experiment in all cases: Biological Example 2 glasshouse assay for herbicidal activity
Format in all cases: in vivo
[1] = system: Alopecurus myosuroides (ALOMY); conditions: post-emergence, 360 h, 30 g/ha, 14 or 15 DAA, 0.2% v/v X-77, read-out: percentage phytotoxicity ALOMY
Procedure: (§1) Seeds of a variety of monocotyledonous and dicotyledonous test plants are sown in standard soil in pots. The plants are cultivated for one day (for pre-emergence) or for about 12 days (range=10-13 days) (for post-emergence) under controlled conditions in a glasshouse (warm climate species at 24/18° C., cool climate species at 20/16° C., both at day/night; 16 hours light; 65% humidity).
(§2) An “instant formulation”, known as the “IF50”, containing 50 g/litre (i.e. 5% w/v) of the “technical” (i.e. unformulated) active ingredient is prepared by dissolving the active ingredient in a mixture of organic solvents and emulsifier, details of which are provided in the Table below. This IF50 is then mixed with a small, variable amount of acetone to aid dissolution, before addition of a 0.2% v/v aqueous solution of the adjuvant X-77 (which is a mixture of alkyl aryl polyoxyethylene glycols and free fatty acids in isopropanol, CAS Registry number 11097-66-8), as the aqueous diluent, to form an aqueous spray solution which contains a predetermined concentration of the active ingredient (which varies depending on the application rate of the active ingredient to the plants) and 0.2% v/v of the adjuvant X-77. This aqueous spray solution is then sprayed onto the plants, after one day's cultivation (for pre-emergence) or after about 12 days' cultivation (for post-emergence).
(§3) The test plants are then grown on, in a glasshouse (greenhouse) under controlled conditions (at either 24/18° C. or 20/16° C. (day/night) as mentioned above; 16 hours light; 65% humidity) and are watered twice daily. Either 14 or 15 days after application of the herbicide (14 or 15 DAA) (for post-emergence), or 20 days after application of the herbicide (20 DAA) (for pre-emergence), the test plants are evaluated visually, and an assessed percentage phytotoxicity score is given for each herbicidal application on each plant species (where 100%=total damage to plant; 0%=no damage to plant).
(§4) Some of the typical test plants are as follows: • Cool climate crop plants: Triticum aestivum (TRZAW, winter wheat), Brassica napus (BRSNN, rape, also called oilseed rape or rapeseed), Beta vulgaris (BEAVA, sugarbeet). • Warm climate crop plants: Glycine max (GLXMA, soybean). • Cool climate (“cool season”) grassy monocotyledonous weeds: Alopecurus myosuroides (ALOMY), Avena fatua (AVEFA), Lolium perenne (LOLPE), Poa annua (POAAN), Bromus tectorum (BROTE). • Warm climate (“warm season”) grassy monocotyledonous weeds: Setaria faberi (SETFA), SORVU (Sorghum bicolor (L.) Moench ssp. Bicolor, or Sorghum vulgare Pers.), Digitaria sanguinalis (DIGSA), Echinochloa crus-galli (ECHCG), Brachiaria plantaginea (BRAPL); Zea mays (ZEAMX, corn, maize, e.g. volunteer corn).

Avena fatua (AVEFA) = conditions: post-emergence, 360 h, 30 g/ha, 14 or 15 DAA, 0.2% v/v X-77, read-out: percentage phytotoxicity AVEFA
Procedure: as §1, §2, §3, §4

[2] = system: Brachiaria plantaginea (BRAPL); conditions: Urochloa plantaginea, post-emergence, 360 h, 30 g/ha, 14 or 15 DAA, 0.2% v/v X-77, read-out: percentage phytotoxicity BRAPL
Procedure: as §1, §2, §3, §4

[3] = system: Brassica napus (BRSNN, rape); conditions: Brassica napus, 360 h; post-emergence, 30 g/ha, 14 or 15 DAA, 0.2% v/v X-77; read-out: percentage phytotoxicity BRSNN
Procedure: as §1, §2, §3, §4

[4] = system: Digitaria sanguinalis (DIGSA); conditions: post-emergence, 360 h, 30 g/ha, 14 or 15 DAA, 0.2% v/v X-77, read-out: percentage phytotoxicity DIGSA
Procedure: as §1, §2, §3, §4

[5] = system: Echinochloa crus-galli (ECHCG); conditions: Echinochloa crus-galli, post-emergence, 360 h, 30 g/ha, 14 or 15 DAA, 0.2% v/v X-77, read-out: percentage phytotoxicity ECHCG
Procedure: as §1, §2, §3, §4

[6] = system: Glycine max (GLXMA, soybean); conditions: post-emergence, 360 h, 30 g/ha, 14 or 15 DAA, 0.2% v/v X-77, read-out: percentage phytotoxicity GLXMA
Procedure: as §1, §2, §3, §4

Lolium perenne (LOLPE) = conditions: post-emergence, 30 g/ha, 14 or 15 DAA; for pest or weed control at 30 g/ha: Lolium perenne, 360 h, 0.2% v/v X-77, read-out: percentage phytotoxicity LOLPE
Procedure: as §1, §2, §3, §4

Setaria faberi (SETFA) = conditions: post-emergence, 360 h, 30 g/ha, 14 or 15 DAA, 0.2% v/v X-77, read-out: percentage phytotoxicity SETFA
Procedure: as §1, §2, §3, §4

[7] = system: Triticum aestivum (TRZAW, winter wheat); conditions: post-emergence, 360 h, 30 g/ha, 14 or 15 DAA, 0.2% v/v X-77, read-out: percentage phytotoxicity TRZAW
Procedure: as §1, §2, §3, §4

[8] = system: Beta vulgaris (BEAVA, sugarbeet); conditions: post-emergence, 360 h, 30 g/ha, 14 or 15 DAA, 0.2% v/v X-77, read-out: percentage phytotoxicity BEAVA
Procedure: as §1, §2, §3, §4

[9] = system: SORVU (Sorghum bicolor (L.) Moench ssp. Bicolor, or Sorghum vulgare Pers.); conditions: post-emergence, 360 h, 30 g/ha, 14 or 15 DAA, 0.2% v/v X-77, read-out: percentage phytotoxicity SORVU
Procedure: as §1, §2, §3, §4

[10] = system: Zea mays (ZEAMX, corn, maize, e.g. volunteer corn); conditions: Zea mays, post-emergence, 360 h, 30 g/ha, 14 or 15 DAA, 0.2% v/v X-77, read-out: percentage phytotoxicity ZEAMX
Procedure: as §1, §2, §3, §4

Row | SMILES | pest or weed control at 30 g/ha [1] [%] | pest or weed control at 30 g/ha (Avena fatua (AVEFA)) [%] | pest or weed control at 30 g/ha [2] [%] | plant injury at 30 g/ha [3] [%] | pest or weed control at 30 g/ha [4] [%] | pest or weed control at 30 g/ha [5] [%] | plant injury at 30 g/ha [6] [%] | pest or weed control at 30 g/ha (Lolium perenne (LOLPE)) [%] | pest or weed control at 30 g/ha (Setaria faberi (SETFA)) [%] | plant injury at 30 g/ha [7] [%] | plant injury at 30 g/ha [8] [%] | percentage phytotoxicity LOLPE (Lolium perenne (LOLPE); 0.2% v/v X-77) [%] | pest or weed control at 30 g/ha [9] [%] | pest or weed control at 30 g/ha [10] [%]
1 | Cc1cc(C)c(C2C(=O)C3CCC(C3)C2=O)c(C)c1 (stereo not drawn) [Compound X9, reference compound] | 0 | 0 | 70 | 0 | 30 | 20 | 0 | 0 | 70 | 0 | – | – | – | –
2 | CCc1cc(C)cc(CC)c1C1C(=O)C2CCC(C2)C1=O (stereo not drawn) [Compound X10, reference compound] | 80 | – | 80 | 0 | 100 | – | 0 | 70 | 100 | – | 0 | 70 | 60 | 80
